Data published in patent US4454314A, “Antibacterial mycaminosyl tylonolide and related macrolide derivatives” (Pfizer Inc., priority 1982, dated 1984).
≈ marks a conversion by molar mass, not a printed value. Read-outs that look alike come from different tables or passages of the source.

What was measured:
E. coli 470 = assay: In vitro antibacterial activity (MIC), BHI agar; format: cell-based; conditions: read-out: Minimum Inhibitory Concentration (MIC)
Protocol: (§1) The procedure which is followed is the one recommended by the International Collaborative Study on Antibiotic Sensitivity Testing [Ericcson and Sherris, Acta. Pathologica et Microbiologia Scandinav, Supp. 217, Sections A and B: 64-68 (1971)], and employs brain heart infusion (BHI) agar and the inocula replicating device. Overnight growth tubes are diluted 100 fold for use as the standard inoculum (20,000-10,000 cells in approximately 0.002 ml are placed on the agar surface; 20 ml of BHI agar/dish). Twelve 2 fold dilutions of the test compound are employed, with initial concentration of the test drug being 200 mcg/ml. Single colonies are disregarded when reading plates after 18 hours at 37° C. The susceptibility (MIC) of the test organism is accepted as the lowest concentration of compound capable of producing complete inhibition of growth as judged by the naked eye. A comparison of the in vitro activity of various compounds of the formulae (I) and (II) with tylonolide is recorded in Table 1.

Neiss. sic. = assay: In vitro antibacterial activity (MIC), BHI agar; format: cell-based; conditions: 18 hours at 37° C., read-out: Minimum Inhibitory Concentration (MIC)
Protocol: as §1

Past. mult. 1 = assay: In vitro antibacterial activity (MIC), BHI agar; format: cell-based; conditions: 18 hours at 37° C., read-out: Minimum Inhibitory Concentration (MIC)
Protocol: as §1

Staph. aur. 400 = assay: In vitro antibacterial activity (MIC), BHI agar; format: cell-based; conditions: 18 hours at 37° C., read-out: Minimum Inhibitory Concentration (MIC)
Protocol: as §1

Staph. aur. 52 = assay: In vitro antibacterial activity (MIC), BHI agar; format: cell-based; conditions: 18 hours at 37° C., read-out: Minimum Inhibitory Concentration (MIC)
Protocol: as §1

Staph. aur. 5 = assay: In vitro antibacterial activity (MIC), BHI agar; format: cell-based; conditions: 18 hours at 37° C., read-out: Minimum Inhibitory Concentration (MIC)
Protocol: as §1

Staph. epi. 111 = assay: In vitro antibacterial activity (MIC), BHI agar; format: cell-based; conditions: 18 hours at 37° C., read-out: Minimum Inhibitory Concentration (MIC)
Protocol: as §1

Staph. epi. 126 = assay: In vitro antibacterial activity (MIC), BHI agar; format: cell-based; conditions: 18 hours at 37° C., read-out: Minimum Inhibitory Concentration (MIC)
Protocol: as §1

Strep. faec. 6 = assay: In vitro antibacterial activity (MIC), BHI agar; format: cell-based; conditions: 18 hours at 37° C., read-out: Minimum Inhibitory Concentration (MIC)
Protocol: as §1

Strep. pneum. 12 = assay: In vitro antibacterial activity (MIC), BHI agar; format: cell-based; conditions: 18 hours at 37° C., read-out: Minimum Inhibitory Concentration (MIC)
Protocol: as §1

Strep. pyog. 203 = assay: In vitro antibacterial activity (MIC), BHI agar; format: cell-based; conditions: 18 hours at 37° C., read-out: Minimum Inhibitory Concentration (MIC)
Protocol: as §1

[1] = tested on: infections by sensitive bacteria; assay: In vivo activity against acute experimental infections in mice (PD50); conditions: Mus musculus, sc; subcutaneous; mice infected intraperitoneally, at least one LD100; organism not given; read-out: PD50 (dose which protects 50% of the animals from infection)
Source text: In determining such activity, acute experimental infections are produced in mice by the intraperitoneal inoculation of the mice with a standardized culture of the test organism suspended in 5 percent hog gastric mucin. Infection severity is standarized so that the mice receive at least one LD100 dose of the organism (LD100 : the minimum inoculum of organism required to consistently kill 100 percent of the infected, nontreated control mice). The test compound is then subcutaneously or orally administered at various dosage levels to groups of infected mice. At the end of the test, the activity of the mixture is assessed by counting the number of survivors among treated animals at a given dose. Activity is expressed as the percentage of animals which survive at a given dose, or calculated as a PD50 (dose which protects 50% of the animals from infection).

Bac. sub. 1 = assay: In vitro antibacterial activity (MIC), BHI agar; format: cell-based; conditions: 18 hours at 37° C., read-out: Minimum Inhibitory Concentration (MIC)
Protocol: as §1

Staph. epi. 87 = assay: In vitro antibacterial activity (MIC), BHI agar; format: cell-based; conditions: read-out: Minimum Inhibitory Concentration (MIC)
Protocol: as §1

[2] = Escherichia coli, E. coli 470, BHI agar, 18 hours at 37° C.

Structure (SMILES)	MIC (E. coli 470; [2]) [µg/mL]	MIC (Neiss. sic.) [µg/mL]	MIC (Past. mult. 1) [µg/mL]	MIC (Staph. aur. 400) [µg/mL]	MIC (Staph. aur. 52) [µg/mL]	MIC (Staph. aur. 5) [µg/mL]	MIC (Staph. epi. 111) [µg/mL]	MIC (Staph. epi. 126) [µg/mL]	MIC (Strep. faec. 6) [µg/mL]	MIC (Strep. pneum. 12) [µg/mL]	MIC (Strep. pyog. 203) [µg/mL]	ED50 [1] [mg/kg]	MIC (Bac. sub. 1) [µg/mL]	MIC (E. coli 470; Escherichia coli, 470, 18 h) [µg/mL]	MIC (Staph. epi. 87; 18 h) [µg/mL]	MIC (Staph. epi. 87; Staph. epi. 87, BHI agar, 18 hours at 37° C.) [µg/mL]
CCC1OC(=O)CC(O)C(C)C(OC2OC(C)C(O)C(N(C)C)C2O)C(CC=O)CC(C)C(=O)C=CC(C)=CC1CN(C)C (stereo not shown) [(h)]	1.56 (≈ 2.5 µM)	12.5 (≈ 20 µM)	1.56 (≈ 2.5 µM)	1.56 (≈ 2.5 µM)	1.56 (≈ 2.5 µM)	0.78 (≈ 1.25 µM)	0.78 (≈ 1.25 µM)	3.12 (≈ 4.99 µM)	3.12 (≈ 4.99 µM)	0.39 (≈ 0.624 µM)	0.2 (≈ 0.32 µM)	2.4				
CCC1OC(=O)CC(O)C(C)C(OC2OC(C)C(O)C(N(C)C)C2O)C(CC=NN(C)C)CC(C)C(=O)C=CC(C)=CC1COS(=O)(=O)c1ccc(C)cc1 (stereo not shown) [(c)]		0.78 (≈ 0.982 µM)	3.12 (≈ 3.93 µM)	0.2 (≈ 0.252 µM)	0.2 (≈ 0.252 µM)	0.1 (≈ 0.126 µM)	0.1 (≈ 0.126 µM)	1.56 (≈ 1.96 µM)	0.1 (≈ 0.126 µM)		0.05 (≈ 0.063 µM)	50	0.2 (≈ 0.252 µM)			
CCC1OC(=O)CC(O)C(C)C(OC2OC(C)C(O)C(N(C)C)C2O)C(CC=O)CC(C)C(=O)C=CC(C)=CC1CO [(a), 5-(3,6-dideoxy-3-dimethylamino-beta-D-glucopyrnosyloxy)-6-formylmethyl-3-hydroxy-14-hydroxymethyl-4,8,12-trimethyl-9-oxo-10,12-heptadecadien-15-olide, reference compound]		6.25 (≈ 10.5 µM)	1.56 (≈ 2.61 µM)	1.56 (≈ 2.61 µM)	0.78 (≈ 1.3 µM)	0.78 (≈ 1.3 µM)	1.56 (≈ 2.61 µM)	0.78 (≈ 1.3 µM)	0.78 (≈ 1.3 µM)	0.1 (≈ 0.167 µM)	0.39 (≈ 0.652 µM)	3.12		3.12 (≈ 5.22 µM)	3.12 (≈ 5.22 µM)	
CCC1OC(=O)CC(O)C(C)C(OC2OC(C)C(O)C(N(C)C)C2O)C(CC=O)CC(C)C(=O)C=CC(C)=CC1CCl (stereo not shown) [(g)]	0.78 (≈ 1.27 µM)	1.56 (≈ 2.53 µM)	1.56 (≈ 2.53 µM)	0.39 (≈ 0.633 µM)	0.78 (≈ 1.27 µM)	0.78 (≈ 1.27 µM)	0.2 (≈ 0.325 µM)	0.78 (≈ 1.27 µM)	0.78 (≈ 1.27 µM)	0.02 (≈ 0.0325 µM)	0.39 (≈ 0.633 µM)	13	0.1 (≈ 0.162 µM)			25 (≈ 40.6 µM)
CCC1OC(=O)CC(OC(C)=O)C(C)C(OC2OC(C)C(O)C(N(C)C)C2O)C(CC=O)CC(C)C(=O)C=CC(C)=CC1CN(C)C (stereo not shown) [(f)]		3.12 (≈ 4.68 µM)	6.25 (≈ 9.37 µM)	3.12 (≈ 4.68 µM)	3.12 (≈ 4.68 µM)	3.12 (≈ 4.68 µM)	1.56 (≈ 2.34 µM)	1.56 (≈ 2.34 µM)	6.25 (≈ 9.37 µM)		0.39 (≈ 0.585 µM)		0.78 (≈ 1.17 µM)			
CCC1OC(=O)CC(O)C(C)C(OC2OC(C)C(O)C(N(C)C)C2O)C(CC=O)CC(C)C(=O)C=CC(C)=CC1COS(=O)(=O)c1ccc(C)cc1 (stereo not shown) [(b)]		1.56 (≈ 2.07 µM)	3.12 (≈ 4.15 µM)	0.78 (≈ 1.04 µM)	0.78 (≈ 1.04 µM)	0.78 (≈ 1.04 µM)	1.56 (≈ 2.07 µM)	1.56 (≈ 2.07 µM)	0.39 (≈ 0.519 µM)		0.2 (≈ 0.266 µM)	19	0.78 (≈ 1.04 µM)			
CCC1OC(=O)CC(O)C(C)C(OC2OC(C)C(O)C(N(C)C)C2O)C(CC=NN(C)C)CC(C)C(=O)C=CC(C)=CC1CI (stereo not shown) [(e)]		0.39 (≈ 0.52 µM)	1.56 (≈ 2.08 µM)	0.2 (≈ 0.267 µM)	0.2 (≈ 0.267 µM)	0.2 (≈ 0.267 µM)	0.2 (≈ 0.267 µM)	0.78 (≈ 1.04 µM)	0.39 (≈ 0.52 µM)		0.1 (≈ 0.133 µM)	> 50	0.1 (≈ 0.133 µM)			
CCC1OC(=O)CC(O)C(C)C(OC2OC(C)C(O)C(N(C)C)C2O)C(CC=O)CC(C)C(=O)C=CC(C)=CC1CI (stereo not shown) [(d)]		0.78 (≈ 1.1 µM)		1.56 (≈ 2.2 µM)	0.39 (≈ 0.551 µM)	0.39 (≈ 0.551 µM)	0.78 (≈ 1.1 µM)	6.25 (≈ 8.83 µM)	3.12 (≈ 4.41 µM)		0.1 (≈ 0.141 µM)		0.78 (≈ 1.1 µM)			
